In PubChem BioAssay AID1259411 (Chemical Carcinogenesis Research Information System (CCRIS), 2018):
Activity calls are given as the source filed them. How the calls were made is not given here.

Tested on: rodent carcinogenicity bioassays, tumor incidence
Assay: CCRIS carcinogenicity studies
How it was run: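 NCI-built, expert-reviewed records of carcinogenicity and related test outcomes (mutagenicity, tumor promotion/inhibition) compiled from published and report sources, historical span 1985-2011, not updated.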

## O=P(OC(CCl)CCl)(OC(CCl)CCl)OC(CCl)CCl
Species: RAT, Strain/Sex: SPRAGUE-DAWLEY CD/FEMALE, Route: ORAL, Dose: 0, 5, 20, 80 MG/KG/D IN FEED FOR 2 YR (STUDY DURATION: 2 YR), Dose: 0, 5, 20, 80 MG/KG/D IN FEED FOR 2 YR (STUDY DURATION: 2 YR), Tumor Site: Type of Lesion: ADRENAL GLAND: CORTICAL ADENOMA, KIDNEY: CORTICAL ADENOMA, LIVER: HEPATOCELLULAR ADENOMA, Tumor Site: Type of Lesion: ADRENAL GLAND: CORTICAL ADENOMA, KIDNEY: CORTICAL ADENOMA, LIVER: HEPATOCELLULAR ADENOMA
  carcinogen call: active; positive
Species: RAT, Strain/Sex: SPRAGUE-DAWLEY CD/MALE, Route: ORAL, Dose: 0, 5, 20, 80 MG/KG/D IN FEED FOR 2 YR (STUDY DURATION: 2 YR), Dose: 0, 5, 20, 80 MG/KG/D IN FEED FOR 2 YR (STUDY DURATION: 2 YR), Tumor Site: Type of Lesion: KIDNEY: RENAL CORTICAL ADENOMA, LIVER: HEPATOCELLULAR ADENOMA, TESTES: INTERSTITIAL CELL TUMOR, Tumor Site: Type of Lesion: KIDNEY: RENAL CORTICAL ADENOMA, LIVER: HEPATOCELLULAR ADENOMA, TESTES: INTERSTITIAL CELL TUMOR
  carcinogen call: active; positive

## O=[N+]([O-])c1cc2c3c(ccc2c2ccccc12)[C@H](O)[C@@H](O)C=C3
Species: MOUSE, Strain/Sex: SWISS/FEMALE, Route: INTRAPERITONEAL, Dose: 0, 100 NMOL (TOTAL DOSE) 1/7, 2/7 AND 4/7 ADMINISTERED ON DAYS 1, 8 AND 15 OF LIFE RESPECTIVELY (STUDY DURATION: 32 WK), Tumor Site: Type of Lesion: LUNG: TUMOR
  carcinogen call: active; positive
Species: MOUSE, Strain/Sex: SWISS/MALE, Route: INTRAPERITONEAL, Dose: 0, 100 NMOL (TOTAL DOSE) 1/7, 2/7 AND 4/7 ADMINISTERED ON DAYS 1, 8 AND 15 OF LIFE RESPECTIVELY (STUDY DURATION: 32 WK), Tumor Site: Type of Lesion: LUNG: TUMOR, LIVER: TUMOR
  carcinogen call: active; positive

## Cn1c(CCCC(=O)O)nc2cc(N(CCCl)CCCl)ccc21
Species: MOUSE, Strain/Sex: AB/JENA/FEMALE, Route: INTRAPERITONEAL, Dose: 0, 12.5, 25 MG/KG IN 2 ML SALINE 1/D FOR 4 D FOR A TOTAL DOSE OF 0, 50, 100 MG/KG, Dose: 0, 12.5, 25 MG/KG IN 2 ML SALINE 1/D FOR 4 D FOR A TOTAL DOSE OF 0, 50, 100 MG/KG, Tumor Site: Type of Lesion: PERITONEUM: SARCOMA
  carcinogen call: active; positive
Species: MOUSE, Strain/Sex: AB/JENA/FEMALE, Route: ORAL, Dose: 0, 62.5 MG/KG IN 0.25 ML WATER 1/D FOR 4 D FOR A TOTAL DOSE OF 0, 250 MG/KG, Dose: 0, 62.5 MG/KG IN 0.25 ML WATER 1/D FOR 4 D FOR A TOTAL DOSE OF 0, 250 MG/KG, Tumor Site: Type of Lesion: LUNG: ADENOMA
  carcinogen call: active; positive

## Clc1ccccc1Cl
Species: MOUSE, Strain/Sex: B6C3F1/FEMALE, Route: GAVAGE, Dose: 0, 60, 120 MG/KG BODY WT IN CORN OIL 5 D/WK FOR 103 WK, Dose: 0, 60, 120 MG/KG BODY WT IN CORN OIL 5 D/WK FOR 103 WK
  carcinogen call: inactive; negative
Species: MOUSE, Strain/Sex: B6C3F1/MALE, Route: GAVAGE, Dose: 0, 60, 120 MG/KG BODY WT IN CORN OIL 5 D/WK FOR 103 WK, Dose: 0, 60, 120 MG/KG BODY WT IN CORN OIL 5 D/WK FOR 103 WK
  carcinogen call: inactive; negative
Species: RAT, Strain/Sex: F344/FEMALE, Route: GAVAGE, Dose: 0, 60, 120 MG/KG BODY WT IN CORN OIL 5 D/WK FOR 103 WK, Dose: 0, 60, 120 MG/KG BODY WT IN CORN OIL 5 D/WK FOR 103 WK
  carcinogen call: inactive; negative
Species: RAT, Strain/Sex: F344/MALE, Route: GAVAGE, Dose: 0, 60, 120 MG/KG BODY WT IN CORN OIL 5 D/WK FOR 103 WK, Dose: 0, 60, 120 MG/KG BODY WT IN CORN OIL 5 D/WK FOR 103 WK
  carcinogen call: inactive; negative

## CCC(=O)OCCCCCC(C)C
Species: MOUSE, Strain/Sex: C3H/MALE, Route: DERMAL, Dose: 25 µL (19% W/V IN 70:30 ACETONE/HEPTANE APPLIED TO BACK 3 D/WK FOR LIFE (STUDY DURATION: LIFE)
  carcinogen call: inactive; negative

## COc1cc2c(c3oc(=O)c4c(c13)CCC4=O)[C@]1(O)C=CO[C@@H]1O2
Species: FISH, Strain/Sex: RAINBOW TROUT, Route: ORAL, Dose: 0, 1.5, 7.5, UG/KG DIET FOR 5.5 MO (STUDY DURATION: 5.5 MO), Dose: 0, 1.5, 7.5, UG/KG DIET FOR 5.5 MO (STUDY DURATION: 5.5 MO), Tumor Site: Type of Lesion: LIVER: HEPATOMA
  carcinogen call: active; positive
Species: RAT, Strain/Sex: F344/MALE, Route: ORAL, Dose: 0, 0.5, 5, 50 PPB IN AGAR BASED SEMISYNTHETIC DIET FOR STUDY DURATION (STUDY DURATION: 21 MO), Dose: 0, 0.5, 5, 50 PPB IN AGAR BASED SEMISYNTHETIC DIET FOR STUDY DURATION (STUDY DURATION: 21 MO), Tumor Site: Type of Lesion: LIVER: NEOPLASTIC NODULE, HEPATOCELLULAR CARCINOMA
  carcinogen call: active; positive
Species: TROUT, Strain/Sex: MT. SHASTA RAINBOW, Route: ORAL, Dose: 4, 16, 32, 64 PPB IN DIET FOR 12 MO, Dose: 4, 16, 32, 64 PPB IN DIET FOR 12 MO, Tumor Site: Type of Lesion: LIVER: HEPATOMA
  carcinogen call: active; positive

## C=C(C)C
Species: MOUSE, Strain/Sex: B6C3F1/FEMALE, Route: INHALATION, Dose: 0, 500, 2000, 8000 PPM 6 HR/D 5 D/WK FOR 105 WK (STUDY DURATION: 105 WK), Dose: 0, 500, 2000, 8000 PPM 6 HR/D 5 D/WK FOR 105 WK (STUDY DURATION: 105 WK)
  carcinogen call: inactive; negative
Species: MOUSE, Strain/Sex: B6C3F1/MALE, Route: INHALATION, Dose: 0, 500, 2000, 8000 PPM 6 HR/D 5 D/WK FOR 105 WK (STUDY DURATION: 105 WK), Dose: 0, 500, 2000, 8000 PPM 6 HR/D 5 D/WK FOR 105 WK (STUDY DURATION: 105 WK)
  carcinogen call: inactive; negative
Species: RAT, Strain/Sex: F344/N/FEMALE, Route: INHALATION, Dose: 0, 500, 2000, 8000 PPM 6 HR/D 5 D/WK FOR 105 WK (STUDY DURATION: 105 WK), Dose: 0, 500, 2000, 8000 PPM 6 HR/D 5 D/WK FOR 105 WK (STUDY DURATION: 105 WK)
  carcinogen call: inactive; negative
Species: RAT, Strain/Sex: F344/N/MALE, Route: INHALATION, Dose: 0, 500, 2000;8000 PPM 6 HR/D 5 D/WK FOR 105 WK (STUDY DURATION: 105 WK), Dose: 0, 500, 2000;8000 PPM 6 HR/D 5 D/WK FOR 105 WK (STUDY DURATION: 105 WK), Tumor Site: Type of Lesion: THYROID GLAND: FOLLICULAR CELL CARCINOMA
  carcinogen call: equivocal

## O[C@@H]1[C@H]2O[C@H]2c2c(ccc3cc4ccc5ccccc5c4nc23)[C@H]1O
Species: MOUSE, Strain/Sex: CD-1/FEMALE, Route: INTRAPERITONEAL, Dose: 0, 175 NMOL (TOTAL DOSE) ADMINISTERED AS 1/7 OF DOSE WITHIN 24 HR AFTER BIRTH, 2/7 OF DOSE AT 8 D OLD, 4/7 OF DOSE AT 15, Tumor Site: Type of Lesion: LIVER: TUMOR, LUNG: TUMOR
  carcinogen call: active; positive
Species: MOUSE, Strain/Sex: CD-1/MALE, Route: INTRAPERITONEAL, Dose: 0, 175 NMOL (TOTAL DOSE) ADMINISTERED AS 1/7 OF DOSE WITHIN 24 HR AFTER BIRTH, 2/7 OF DOSE AT 8 D OLD, 4/7 OF DOSE AT 15, Tumor Site: Type of Lesion: LIVER: TUMOR, LUNG: TUMOR
  carcinogen call: active; positive
